From patent US9173875B2, “Treatment for nicotine-induced lung disease using peroxisome proliferator-activated receptor gamma agonists” (Los Angeles Biomedical Research Institute at Harbor-UCLA …, priority 2006, dated 2015)

Legend:
[1] = tested on: ATII cells
[2] = tested on: ATII cells; assay: Phospholipid synthesis ([3H]choline incorporation into saturated phosphatidylcholine) by ATII cells after in utero nicotine; type: in vivo, Sprague-Dawley rat; settings: nicotine 1 mg/kg in utero; vs control, P<0.05, n=6
Protocol: Incorporation of [methyl-3H]choline chloride (NEN Dupont) into saturated phosphatidylcholine was determined in monolayers of cultured explants and ATII cells. […] After incubation, explants and cells were washed three times with ice-cold PBS. The explants and the scraped cells were thoroughly homogenized, and the cellular lipids were extracted with chloroform-methanol (2:1) (Bligh and Dyer (1959) Can. J. Biochem. Physiol., 37: 911-917). The organic phase was dried under a stream of nitrogen at 60° C., resuspended in 0.5 ml of carbon tetrachloride containing 3.5 mg of osmium tetroxide, and left at room temperature for 15 min. The reaction mixture was redried under nitrogen and resuspended in 70 μl of chloroform-methanol (9:1, vol/vol). The lipid extracts were transferred to silica gel plates (Kodak, Rochester, N.Y.) and developed in a chloroform-methanolwater (65:25:4) solvent system. Pure dipalmitoyl phosphatidylcholine was used as the chromatographic standard. The developed plates were stained with bromothymol blue, blotted, and vacuum dried for 5 min at 90° C. Chromatogram spots corresponding to the migration of saturated phosphatidylcholine were scraped from the plates and counted by liquid scintillation spectrometry. The amounts of [methyl^3H]choline chloride incorporated into saturated phosphatidylcholine were expressed as disintegrations per minute per milligram of protein.

[3] = target: T1, PTHrP receptor (Homo sapiens, UniProt Q03431); assay: PTHrP receptor binding assay; settings: nicotine 1×10^−6 M
T1 construct: 10-12 μg membrane protein; endogenous in cells; host or cells: WI38 human embryonic lung fibroblasts (inferred; the assay text only says membrane protein)
T1 sequence (Q03431 27-593): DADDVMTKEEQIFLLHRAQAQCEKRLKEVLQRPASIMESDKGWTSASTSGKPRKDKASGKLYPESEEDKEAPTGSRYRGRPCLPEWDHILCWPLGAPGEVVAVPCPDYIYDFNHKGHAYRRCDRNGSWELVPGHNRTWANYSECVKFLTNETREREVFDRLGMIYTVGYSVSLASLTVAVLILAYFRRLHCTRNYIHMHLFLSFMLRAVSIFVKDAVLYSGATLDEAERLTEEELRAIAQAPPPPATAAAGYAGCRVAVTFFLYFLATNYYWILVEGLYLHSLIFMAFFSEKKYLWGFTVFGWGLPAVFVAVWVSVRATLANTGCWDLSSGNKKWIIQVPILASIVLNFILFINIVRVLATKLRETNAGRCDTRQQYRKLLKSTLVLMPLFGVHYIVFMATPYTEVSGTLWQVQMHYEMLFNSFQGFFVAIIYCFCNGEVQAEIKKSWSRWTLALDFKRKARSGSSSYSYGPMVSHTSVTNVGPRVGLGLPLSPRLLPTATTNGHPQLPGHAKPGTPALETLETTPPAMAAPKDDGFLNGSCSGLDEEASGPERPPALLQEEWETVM
Protocol: The receptor binding assay was carried out as previously described (Torday and Rehan (2002) Am. J. Physiol. Lung Cell Mol. Physiol. 283: L130-L135; Torday and Rehan (2003) Cell Biochem Biophys 37: 235-246). The assay mixture, in a total volume of 0.1 ml, contained 50 mM Tris.HCl (pH 7.4), 2 mM dithiothreitol, 10 mM EDTA, 10 μg/ml each of protease inhibitors (leupeptin, pepstatin, antipain, and aprotinin), 0.5 mM phenylmethylsulfonyl fluoride, 10 mg/ml BSA, 5 mM MgCl2, […] [1251]-Tyr34-PTHrP-(1-34) (specific activity 1,064 Ci/mmol), 10-12 μg membrane protein, and 1×10-10 to 1×10^−6 M PTHrP-(1-34). Triplicate samples were incubated for 30 min at 30° C. Reactions were stopped by the addition of 0.1 ml of homogenization buffer containing 20 mg/ml of BSA and placed in ice-cold water for 30 min, followed by centrifugation at 15,000 g for 1 min. The supernatant was aspirated, and the pellet was counted for radioactive content with a gamma counter (model 1470; Wallace, Gaithersburg, Md.). Nonspecific binding was determined in the presence of 1 μM nonradioactive PTHrP-(1-34). Specific binding of [^125I]-Tyr34-PTHrP-(1-34) was calculated as total binding minus nonspecific binding and expressed as femtomoles per milligrams of protein. […] The effect of nicotine (1×10^−6 M) on PTHrP receptor binding was examined without and with the nACh receptor antagonists D-tubocurarine, α-bungarotoxin, or mecamylamine (1×10^−9 to 1×10^−6 M).

[4] = tested on: ATII cells; settings: nicotine 24 h
[5] = tested on: ATII cells; assay: Western analysis of CCT-α and SP-B in ATII cells treated in vitro; type: cell-based, rat
Protocol: Protein extraction and Western blot analysis for SP-B and choline phosphate cytidylyltransferase-α (CCT-α) were performed using standard methods. […] Equal amounts of the protein from the supernatant were dissolved in electrophoresis sample buffer and subjected to SDS-polyacrylamide (4-12% gradient) gel electrophoresis followed by electrophoretic transfer to a nitrocellulose membrane. The membrane was blocked with 5% milk in 1× Tris-buffered saline containing 0.1% Tween 20 for 1 h and then incubated with rabbit anti-human SP-B polyclonal antibody (1:1,000 dilution; Chemicon) overnight at 4° C. The antibody for CCT-α (1:2,000 dilution) was a kind gift from Dr. Mallampalli (University of Iowa, Iowa City, Iowa). Subsequently, the membrane was washed with 1× Tris-buffered saline+0.1% Tween 20 and incubated with a 1:3,000 dilution of anti-rabbit horseradish peroxidase-linked whole antibody immunoglobulin G (Amersham, Arlington Heights, Ill.) for 1 h at room temperature, washed again, and developed with a chemiluminescent substrate (ECL, Amersham) following the manufacturer's protocol. The density of the SP-B and CCT-α bands was quantified using a scanning densitometer (Eagle Eye, Stratagene).

[6] = tested on: WI38 cells; assay: Western blot of lipogenic and myogenic marker proteins in WI38 cells (nicotine with or without lipogenic pathway agonists); type: cell-based, human; settings: nicotine 1×10^−9, 7 days
Protocol: The human embryonic cell line WI38 was obtained from American Type Culture Collection (Rockville, Md.). Cells were grown in MEM plus 10% FBS at 37° C. in six-well plates, four-well slides, and 60- and 100-mm culture dishes as needed.
Western blotting was performed with modifications of methods described previously (Ayad and Wong (1998) Crit. Care Med 26: 1277-1282). […] Equal amounts of the protein (25 μg) from the supernatant were dissolved in electrophoresis sample buffer and were subjected to SDS-PAGE (4-12% gradient) followed by electrophoretic transfer to a nitrocellulose membrane. Nonspecific binding of antibody was blocked by washing with Tris-buffered saline (TBS) containing 5% milk for 1 h. The blot was then subjected to two brief washes with TBS plus 0.5% Tween 20, incubated in TBS plus 0.1% Tween 20 and the specific primary antibodies (PPAR 1:2,000, Alexis Biochemicals, San Diego, Calif.; -SMA 1:50,000, Sigma; ADRP 1:3,000, a kind gift from Dr. Constantine Londos, National Institute of Diabetes and Digestive and Kidney Diseases) overnight at 4° C. Blots were then washed in TBS plus 0.1% Tween 20 and then incubated for 1 h in secondary antibody, washed, and developed with a chemiluminescent substrate (ECL; Amersham, Arlington Heights, Ill.) following the manufacturer's protocol.

[7] = tested on: ATII cells; remark: listed apart in the source
Protocol: Isolated ATII cells were cultured in DMEM+10% FBS in 6- and 96-well plates, 100-mm dishes, and T-75 flasks, as needed, and maintained at 37° C. in a humidified incubator containing 5% CO2-95% air. At 80-90% confluence, cells were processed for cell proliferation, differentiation, and metabolic studies (see below).
Briefly, [1,2-^13C2]glucose was purchased with >99% enrichment for the specified carbon positions from Isotech (Miamisburg, Ohio). Lung ATII cells were isolated from embryonic day 20 pups from specified treatment groups and cultured in T-75 tissue culture flasks. […] The [^13C]glucose label is readily incorporated into various metabolites in mammalian cells, including ribonucleic acid (through ribose synthesis), lactate (through glycolysis), glutamate (through the tricarboxylic acid cycle), and palmitate (through the formation of acetyl-CoA). As the molecular weight (atomic mass unit) of these molecules increases on incorporation of the heavier ^13C atoms derived from [1,2,^13C2]glucose, they can be separated and quantitatively analyzed by gas chromatography-mass spectrometry (MS) on the basis of changes in their mass-to-charge ratios (m/z). […]
Fatty acids in the cell culture medium were extracted by saponification of the TRIzol cell extract after removal of the RNA-containing supernatant. […] Palmitate was monitored at ion cluster m/z 270. […]

CN1CCCC1c1cccnc1 (stereo not drawn) [nicotine] was tested, and the “[13C]glucose labeling of the acetyl-CoA pool” value ([1]; in utero nicotine) was “modest increase”, the “de novo palmitate synthesis as a function of total palmitate” value ([1]; rat, in vivo) was “almost doubled” and the “ribose synthesis via the nonoxidative transketolase pathway” value ([1]; rat, in vivo) was “significant decrease”. The “ribose synthesis via the oxidative glucose-6-phosphate dehydrogenase pathway” value ([1]; rat, in vivo) was “significant increase”, the “[3H]choline incorporation into saturated phosphatidylcholine” value [2] was “significantly increased” and the “decrease in PTHrP binding to its receptor” value [3] was 30%. For the same molecule, the “ATII cell proliferation, direct stimulation in vitro” value [4] was “no effect”, the SP-B expression ([5]; direct nicotine treatment of cultured ATII cells) was “significant increase” and the CCT-α protein expression ([5]; in vitro nicotine exposure) was “significant increase”. The “change in ADRP protein level” value [6] was −20±3%, the “change in PPAR protein level” value [6] was −24±2% and the “change in PTHrP receptor protein level” value [6] was −31±7%. For the same molecule, the “change in α-SMA protein level” value [6] was “+100±5%”, the “de novo palmitate synthesis or [13C]glucose labeling of acetyl-CoA” value [7] was “did not result in a significant change” and the “ribose synthesis via the oxidative or the nonoxidative pathway” value [7] was “did not alter”.
